The supplement of paper PMC10307832

Legend:
[1] = compound: CC(C)CCN1c2nc(Nc3cc(F)c(O)c(F)c3)ncc2N(C)C(=O)C1C [BI-D1870]; assay: relative viability (nuclei count vs DMSO), 5 days (fraction); higher = more cells survive
Outline: (§1)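 A plate was accepted only when its control CV was below 25% and the cells had doubled at least once. Viability is defined from nuclear counts as treated wells divided by vehicle wells, with the median taken across plates. That median covers lung cancer cell lines grown in 1536-well plates, dosed by pinning at five √10-spaced library-drug concentrations, and counted in MetaXpress from 4× Hoechst images after 5 days.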

[2] = compound: O=c1ncccn1[C@@H]1O[C@H](CO)[C@@H](O)[C@H]1O [Zebularine]; assay: as above
Outline: as §1

| Cell Line | relative viability ([1]; 0.04 µM) | relative viability ([1]; 0.1265 µM) | relative viability ([1]; 0.4 µM) | relative viability ([1]; 1.265 µM) | relative viability ([1]; 4 µM) | relative viability ([2]; 1 µM) | relative viability ([2]; 3.162 µM) | relative viability ([2]; 10 µM) | relative viability ([2]; 31.62 µM) | relative viability ([2]; 100 µM) |
| --- | --- | --- | --- | --- | --- | --- | --- | --- | --- | --- |
| NCI-H460 | 1.04 | 0.96 | 0.96 | 0.999 | 0.703 | 1.07 | 1 | 0.662 | 0.498 | 0.096 |
| NCI-H520 | 0.963 | 0.79 | 1.11 | 0.927 | 0.851 | 1.11 | 0.957 | 0.52 | 0.388 | 0.26 |
| NCI-H522 | 0.974 | 1.15 | 1.04 | 1.08 | 0.841 | 0.9 | 1.08 | 0.87 | 0.928 | 0.847 |
| NCI-H596 | 0.986 | 0.912 | 0.939 | 1.08 | 1.03 | 1.12 | 0.954 | 0.781 | 1.06 | 0.989 |
| NCI-H647 | 1.07 | 0.918 | 1.05 | 1.04 | 0.889 | 1.01 | 0.943 | 0.294 | 0.203 | 0.157 |
| NCI-H650 | 1.02 | 0.789 | 1.08 | 0.906 | 0.836 | 0.956 | 0.886 | 0.611 | 0.496 | 0.254 |
| NCI-H661 | 1.03 | 0.974 | 1 | 1 | 0.955 | 1.02 | 0.958 | 0.961 | 1.06 | 1.04 |
| NCI-H727 | 1.1 | 0.888 | 0.934 | 0.79 | 0.91 | 0.906 | 0.811 | 0.726 | 0.976 | 0.92 |
| NCI-H838 | 0.962 | 0.892 | 0.958 | 1.07 | 0.992 | 1.05 | 0.962 | 0.753 | 0.692 | 0.352 |
| NCI-H1299 | 1.05 | 1.01 | 1.04 | 1.04 | 0.863 | 1.02 | 0.97 | 0.858 | 1.06 | 0.454 |
| NCI-H1355 | 1.06 | 0.917 | 0.958 | 1.11 | 0.861 | 1.06 | 0.955 | 0.749 | 0.62 | 0.33 |
| NCI-H1395 | 0.905 | 0.822 | 0.87 | 0.988 | 0.827 | 0.929 | 0.86 | 0.788 | 0.676 | 0.511 |
| NCI-H1437 | 1.02 | 0.906 | 0.992 | 1.04 | 0.9 | 1.07 | 1 | 0.761 | 0.97 | 0.641 |
| NCI-H1563 | 0.991 | 1.01 | 0.933 | 0.972 | 0.994 | 0.966 | 0.969 | 0.951 | 1.04 | 0.998 |
| NCI-H1623 | 0.945 | 0.895 | 1.19 | 1.16 | 0.911 | 0.923 | 0.895 | 0.86 | 0.894 | 0.531 |
| NCI-H1648 | 0.877 | 0.777 | 0.729 | 0.89 | 0.869 | 1.16 | 1.06 | 0.563 | 0.668 | 0.708 |
| NCI-H1650 | 0.9 | 0.765 | 1 | 0.96 | 0.807 | 1.03 | 0.904 | 0.766 | 1.15 | 0.727 |

| Cell Line | relative viability ([1]; 0.04 µM) | relative viability ([1]; 0.1265 µM) | relative viability ([1]; 0.4 µM) | relative viability ([1]; 1.265 µM) | relative viability ([1]; 4 µM) | relative viability ([2]; 1 µM) | relative viability ([2]; 3.162 µM) | relative viability ([2]; 10 µM) | relative viability ([2]; 31.62 µM) | relative viability ([2]; 100 µM) |
| --- | --- | --- | --- | --- | --- | --- | --- | --- | --- | --- |
| NCI-H1651 | 0.997 | 0.911 | 0.945 | 1.04 | 0.914 | 1.04 | 0.989 | 0.718 | 0.911 | 0.57 |
| NCI-H1666 | 1.12 | 1.01 | 0.955 | 1.16 | 0.99 | 1.03 | 0.904 | 0.834 | 1.02 | 0.868 |
| NCI-H1703 | 0.92 | 0.708 | 0.905 | 1.02 | 0.806 | 0.856 | 0.815 | 0.606 | 0.899 | 0.667 |
| NCI-H1734 | 1.02 | 0.922 | 0.978 | 0.987 | 0.815 | 1.02 | 0.97 | 0.771 | 0.579 | 0.289 |
| NCI-H1755 | 1.03 | 1.01 | 1.03 | 1.07 | 1.01 | 1.12 | 0.981 | 1.02 | 1.04 | 0.717 |
| NCI-H1792 | 1 | 0.981 | 0.828 | 1.15 | 0.613 | 1.1 | 0.925 | 0.431 | 0.449 | 0.277 |
| NCI-H1793 | 1.06 | 0.803 | 0.757 | 1.19 | 0.801 | 1.16 | 1 | 0.442 | 0.67 | 0.237 |
| NCI-H1915 | 1.09 | 0.921 | 0.969 | 0.988 | 0.763 | 1.04 | 0.932 | 0.821 | 1.08 | 1.03 |
| NCI-H1944 | 1.12 | 0.919 | 0.907 | 1.03 | 0.941 | 0.995 | 1.02 | 0.788 | 0.947 | 0.718 |
| NCI-H1975 | 1.15 | 0.904 | 0.99 | 0.914 | 0.851 | 1 | 0.859 | 0.519 | 0.468 | 0.258 |
| NCI-H1993 | 1.03 | 0.876 | 0.827 | 1.15 | 0.702 | 1.18 | 0.945 | 0.736 | 0.963 | 0.774 |
| NCI-H2009 | 1.11 | 0.967 | 1.02 | 0.858 | 0.513 | 1.05 | 0.987 | 0.793 | 0.704 | 0.358 |
| NCI-H2023 | 1 | 0.846 | 0.88 | 0.988 | 0.701 | 1.17 | 1 | 0.724 | 0.613 | 0.287 |
| NCI-H2085 | 1.06 | 0.95 | 1.01 | 0.984 | 0.746 | 1 | 0.949 | 0.829 | 0.972 | 0.662 |
| NCI-H2087 | 1.13 | 0.977 | 1.15 | 1.21 | 0.78 | 1.04 | 0.949 | 0.747 | 0.894 | 0.381 |
| NCI-H2126 | 1.05 | 0.889 | 0.981 | 1 | 0.854 | 1.06 | 0.884 | 0.879 | 0.927 | 0.648 |
| NCI-H2170 | 1.06 | 0.925 | 0.961 | 0.949 | 0.843 | 1.1 | 1.01 | 0.933 | 0.975 | 0.693 |
